Values of other authors, collected in patent publication US20090088367A1, “Treatment of Insulin Resistance/Metabolic Syndrome to Alleviate the Risks of Dementia” (Burnham Institute For Medical Research, priority 2004, published 2009).

What was measured:
[1] = tested on: neurodegeneration induced by beta-amyloid(1-40); settings: Miguel-Hidalgo et al., Brain Res 2002
[2] = tested on: APP/PS1 double mutant mice; settings: transgenic mouse with mutant amyloid precursor protein and presenilin I; Tanila et al., J Neurochem 2003
[3] = tested on: tau hyperphosphorylation; settings: in culture; okadaic acid-induced changes; Iqbal et al., J Neurochem 2003

CC12CC3CC(C)(C1)CC(N)(C3)C2 [memantine, 1-amino-3,5-dimethyladamantine]
protection from intrahippocampal injection of Aβ [1]: offer protection
performance on behavioral tests (T-maze and Morris water maze) [2]: improved performance
tau hyperphosphorylation [3]: reduce tau hyperphosphorylation
